Measured values reported in patent US20080206287A1, “Use of cyclosporin A to sensitize resistant cancer cells to death receptor ligands” (priority 2006, published 2008).
Entries after “also recorded” stand apart in the source; their conditions may differ.

How the values were obtained:
Type in all cases: cell-based
PPC-1 cells = assay: Apoptosis of PPC-1 cells transfected with CrmA or Bcl-XL; settings: for protection by Bcl-XL against apoptosis induced by CH-11 plus compound: PPC-1 cells transfected with Bcl-XL; for protection by CrmA against apoptosis induced by CH-11 plus compound: PPC-1 cells transfected with CrmA
Method: Cell transfections. PPC-1 cells (2×10^5) were seeded in 35 mm diameter plates in RPMI with 10% FCS. The next day the cells were co-transfected using Lipofectamine Plus (Invitrogen, Carlsbad, Calif.) with 0.5 μg GFP-encoding plasmid pEGFP (Invitrogen) in combination with […] of plasmids encoding Bcl-XL, the viral caspase-8 inhibitor Crm A, or empty vector. At 2 days post-transfection, cells were incubated with various concentrations of CH-11 antibody and the test compounds for 24 hours, then the percentage apoptosis was scored by UV-microscopic analysis of the GFP-positive cells, counting a minimum of 200 cells. Cells that had rounded up and were floating in the medium were counted as non-viable, while cells that remained adherent to the plate with normal morphological features were counted as viable.
To further address the specificity of the compounds for the extrinsic pathway, the effects of selective apoptosis inhibitory genes were examined. For these experiments, PPC-1 cells were transfected with plasmids encoding CrmA, a viral protein that blocks the extrinsic pathway by inhibiting caspase-8 (Zhou et al., J. Biol. Chem. 272:7797-7800, 1997) or encoding Bcl-xL, a mitochondria-targeting protein that blocks the intrinsic pathway by inhibiting release of cytochrome c (Boise et al., Cell 74:597-608, 1993; Kharbanda et al., Proc. Natl. Acad. Sci. USA 94:6939-6942, 1997). After transfection, cells were treated with CH-11 antibody and compounds 6094911, 5809354, or […] scoring the percentage of apoptotic cells among the successfully transfected cells as determined by co-transfection of a GFP-marker plasmid.

FAS or TRAIL receptors = assay: Surface expression of death receptors by flow cytometry; settings: PPC-1 cells
Source text: Furthermore, since these compounds sensitize to both FAS and TRAIL, they presumably act distal to death receptors.

FLIP mRNA = FLIP mRNA quantitative RT-PCR; settings: responding and non-responding cell lines
Method: Quantitative RT-PCR. The cDNAs encoding the long isoform of FLIPL and GAPDH were amplified using the following primer pairs: 5′-[…]-3′ (forward primer for FLIP; SEQ ID NO:1), 5′-[…]-3′ (reverse primer for FLIP; SEQ ID NO:2), 5′-GAAGGTGAAGGTCGGAGTC-3′ (forward primer for GAPDH; SEQ ID NO:3), and 5′-[…]-3′ (reverse primer for GAPDH; SEQ ID NO:4). Equal amounts of cDNA for each sample were added to a prepared master mix (SYBR Green PCR Master mix, Applied Biosystems, Foster City, Calif.). Real-time quantitative PCR reactions were performed on an ABI Prism 7700 sequence detection system (Applied Biosystems, Foster City, Calif., USA). The relative abundance of a transcript was represented by the threshold cycle of amplification (CT), which is inversely correlated to the amount of target RNA/first strand cDNA being amplified. To normalize for equal amounts of the latter, the transcript levels of the putative housekeeping gene GAPDH were assayed. The comparative CT method was calculated as per manufacturer's instructions. To normalize the CT of FLIP for each sample, the following ratio was calculated: CT(FLIP)/CT(GAPDH). The expression level of FLIP relative to the baseline level was calculated as 2^−ΔΔCT(FLIP), where ΔCT is (average FLIP CT-average GAPDH CT) and ΔΔCT is (average ΔCT untreated sample−average ACT treated sample.
To determine whether the reductions in FLIP protein occurred at the level of mRNA or protein, FLIP mRNA expression was measured by Quantitative RT-PCR in cells treated with 5809354 or buffer control.

Compound	protection by Bcl-XL against apoptosis induced by CH-11 plus compound (PPC-1 cells)	protection by CrmA against apoptosis induced by CH-11 plus compound (PPC-1 cells)	surface expression of FAS or TRAIL receptors (FAS or TRAIL receptors)	FLIP mRNA expression (FLIP mRNA)
CCn1c(=N)n(CC(=O)c2cc(C(C)(C)C)c(O)c(C(C)(C)C)c2)c2ccccc21 [compound 5569100, 1-(3,5-Di-tert-butyl-4-hydroxy-phenyl)-2-(3-ethyl-2-imino-2,3-dihydro-benzoimidazol-1-yl)-ethanone]	no protective effect	almost completely protected	did not change	did not reduce FLIP mRNA
O=C(CCCOc1ccc(Cl)cc1Cl)NO [compound 5809354, 4-(2,4-dichlorophenoxy)-N-hydroxybutanamide]	no protective effect	almost completely protected	did not change	reduced expression of FLIP mRNA; also recorded: decreased FLIP mRNA
CC(=O)CC(=O)Nc1ccc(Cl)c(C(F)(F)F)c1 [compound 6094911, N-[4-chloro-3-(trifluoromethyl)phenyl]-3-oxobutanamide]	no protective effect	almost completely protected	did not change	did not reduce FLIP mRNA
